Results: ChEMBL document CHEMBL5385857, “Optimization and SAR research at the benzoxazole and tetrazole rings of JNJ4796 as new anti-influenza A virus agents, part 2” (Eur J Med Chem, 2023)
Calls of active or inactive are those of the source. The calls are words filed in the database; no cut-off is given here.

How the values were obtained:
Influenza A virus [1] = assay: Antiviral activity against influenza A virus H1N1 infected in MDCK cells; format: functional, organism-based
[2] = Cytotoxicity against MDCK cells; format: toxicity, cell-based, Canis lupus familiaris; conditions: dog
Influenza A virus [3] = assay: Antiviral activity against Influenza A virus H3N2 subtype; format: functional, organism-based
[4] = test system: Infectious bronchitis virus; assay: Antiviral activity against Infectious bronchitis virus; format: functional, organism-based
Influenza A virus [5] = assay: Antiviral activity against influenza A virus H1N1 A/Puerto Rico/8/1934 infected in Kunming mouse assessed as survival rate at 5 to 15 mg/kg, po administered with compound twice daily for 7 days followed by viral infection on day 2 and measured for 14 days relative to control; format: functional; conditions: dose 5-15 mg/kg, time 14 day
Influenza A virus [6] = assay: Antiviral activity against influenza A virus H1N1 A/Puerto Rico/8/1934 infected in Kunming mouse assessed as survival rate at 1.67 mg/kg, po administered with compound twice daily for 7 days followed by viral infection on day 2 and measured for 14 days relative to control; format: functional; conditions: H1N1 A/Puerto Rico/8/1934, 336 h, time 14 day
[7] = Gastrointestinal toxicity in Kunming mouse infected with influenza A virus H1N1 A/Puerto Rico/8/1934 assessed as soft stool at 1.67 to 15 mg/kg, po administered with compound twice daily for 7 days followed by viral infection on day 2 and measured for 14 days; format: organism-based; conditions: in vivo, 336 h, dose 1.67-15 mg/kg, time 14 day
[8] = Toxicity in Kunming mouse infected with influenza A virus H1N1 A/Puerto Rico/8/1934 assessed as reduction in body weight at 1.67 to 15 mg/kg, po administered with compound twice daily for 7 days followed by viral infection on day 2 and measured for 14 days relative to oseltamivir; format: organism-based; conditions: in vivo, 336 h, dose 1.67-15 mg/kg, time 14 day
[9] = Selectivity index, ratio of CC50 for MDCK cells to IC50 for influenza A virus infected in MDCK cells; format: toxicity, cell-based; conditions: dog, read-out: Ratio CC50/IC50
[10] = Elimination half life in Balb/c mouse at 25 mg/kg, po administered as single dose; format: ADME, organism-based; conditions: in vivo, read-out: beta t1/2 (converted)
[11] = Tmax in Balb/c mouse at 25 mg/kg, po administered as single dose; format: ADME, organism-based; conditions: in vivo
[12] = Cmax in Balb/c mouse at 25 mg/kg, po administered as single dose; format: ADME, organism-based; parameters: dose 25 mg/kg, route po; conditions: in vivo
[13] = AUC (0 to infinity) in Balb/c mouse at 25 mg/kg, po administered as single dose; format: ADME, organism-based; parameters: dose 25 mg/kg, route po; conditions: in vivo
hERG (KCNH2) = hERG (KCNH2) (Homo sapiens, UniProt Q12809); assay: Inhibition of hERG at 10 uM relative to control; format: toxicity
[14] = Toxicity in Kunming mouse infected with influenza A virus H1N1 A/Puerto Rico/8/1934 assessed as reduction in body weight at 5 to 15 mg/kg, po administered with compound twice daily for 7 days followed by viral infection on day 2 and measured for 14 days relative to oseltamivir; format: organism-based; conditions: in vivo, 336 h, dose 5-15 mg/kg, time 14 day
Influenza A virus [15] = assay: Antiviral activity against influenza A virus H1N1 A/Puerto Rico/8/1934 infected in Kunming mouse assessed as survival rate at 15 mg/kg, po administered with compound twice daily for 7 days followed by viral infection on day 2 and measured for 14 days relative to control; format: functional; conditions: H1N1 A/Puerto Rico/8/1934, 336 h, time 14 day

hERG (KCNH2), sequence (Q12809 whole entry): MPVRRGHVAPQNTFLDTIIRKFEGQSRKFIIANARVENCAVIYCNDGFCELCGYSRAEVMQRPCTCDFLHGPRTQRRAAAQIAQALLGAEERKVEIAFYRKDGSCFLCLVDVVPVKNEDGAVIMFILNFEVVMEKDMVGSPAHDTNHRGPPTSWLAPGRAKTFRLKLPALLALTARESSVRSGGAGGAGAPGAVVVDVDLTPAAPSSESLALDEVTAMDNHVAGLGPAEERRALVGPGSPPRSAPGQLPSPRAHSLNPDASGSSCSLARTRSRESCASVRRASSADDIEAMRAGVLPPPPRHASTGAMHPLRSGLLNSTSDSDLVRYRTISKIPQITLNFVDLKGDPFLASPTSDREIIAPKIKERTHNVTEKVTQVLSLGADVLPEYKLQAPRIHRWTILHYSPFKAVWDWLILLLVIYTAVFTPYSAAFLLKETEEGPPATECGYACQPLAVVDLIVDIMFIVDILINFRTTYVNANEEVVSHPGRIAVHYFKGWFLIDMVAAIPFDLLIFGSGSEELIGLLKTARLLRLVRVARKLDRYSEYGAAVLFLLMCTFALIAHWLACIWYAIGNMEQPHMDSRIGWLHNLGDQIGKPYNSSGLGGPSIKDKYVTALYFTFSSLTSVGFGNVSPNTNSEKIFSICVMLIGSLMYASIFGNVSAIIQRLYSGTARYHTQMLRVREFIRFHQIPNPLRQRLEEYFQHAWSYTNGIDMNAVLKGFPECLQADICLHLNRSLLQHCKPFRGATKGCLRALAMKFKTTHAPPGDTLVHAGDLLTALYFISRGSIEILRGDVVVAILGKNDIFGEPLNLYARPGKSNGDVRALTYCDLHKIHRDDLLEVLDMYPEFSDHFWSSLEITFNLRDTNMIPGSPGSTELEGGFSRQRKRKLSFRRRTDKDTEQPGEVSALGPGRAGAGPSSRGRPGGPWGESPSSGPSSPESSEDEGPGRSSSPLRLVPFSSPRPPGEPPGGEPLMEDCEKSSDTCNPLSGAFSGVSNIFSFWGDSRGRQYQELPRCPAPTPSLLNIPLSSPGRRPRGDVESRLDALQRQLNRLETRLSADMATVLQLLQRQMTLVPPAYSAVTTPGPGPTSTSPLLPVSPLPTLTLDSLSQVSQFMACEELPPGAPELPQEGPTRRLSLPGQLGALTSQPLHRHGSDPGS

Compound	IC50 (Influenza A virus [1]) [µM]	CC50 [2] [µM]	selectivity ratio [9]	other results
CC(=O)Nc1ccc2oc(-c3ccnc(C(=O)N4CCN(C(c5ccc(F)cc5)c5nnn(CC6CCCCC6)n5)CC4)c3)nc2c1 (stereo not drawn)	0.36	38.5	–	–
Cn1nnc(C(c2ccc(F)cc2)N2CCN(C(=O)c3cc(-c4nc5cc(NC(=O)C(C)(C)C)ccc5o4)ccn3)CC2)n1 (stereo not drawn)	0.35	12.8	–	–
Cn1nnc(C(c2ccc(F)cc2)N2CCN(C(=O)c3cc(-c4nc5cc(NC(=O)C6CCCC6)ccc5o4)ccn3)CC2)n1 (stereo not drawn)	0.63	5.14	–	–
CC(=O)Nc1ccc2oc(-c3ccnc(C(=O)N4CCN(C(c5ccc(F)cc5)c5nnn(C)n5)CC4)c3)nc2c1 (stereo not drawn)	–	–	–	Activity (Influenza A virus [3]): inactive; Activity [4]: inactive
Cn1nnc(C(c2ccc(F)cc2)N2CCN(C(=O)c3cc(-c4nc5cc(NC(=O)C6CCCCC6)ccc5o4)ccn3)CC2)n1 (stereo not drawn)	0.82	1.43	–	–
CC(=O)Nc1ccc2oc(-c3ccnc(C(=O)N4CCN([C@H](c5ccc(F)cc5)c5nnn(C)n5)CC4)c3)nc2c1	–	> 100	–	Survival (Influenza A virus [5]): 100%; survival at 1.67 mg/kg (Influenza A virus [6]): 70%; Activity [7]: Toxic; Activity [8]: Non-Toxic
CCC(CC)n1nnc(C(c2ccc(F)cc2)N2CCN(C(=O)c3cc(-c4nc5cc(NC(C)=O)ccc5o4)ccn3)CC2)n1 (stereo not drawn)	0.36	> 50	–	–
C=Cn1nnc([C@@H](c2ccc(F)cc2)N2CCN(C(=O)c3cc(-c4nc5cc(NC(C)=O)ccc5o4)ccn3)CC2)n1	0.03	> 100	> 3330	half-life [10]: 94.2 min; Tmax [11]: 15 min; Cmax [12]: 2.13 µg/mL; AUC(0-inf) [13]: 2.1 µg·h/mL; inhibition at 10 µM (hERG (KCNH2)): 36.4%
CCC(CC)n1nnc([C@H](c2ccc(F)cc2)N2CCN(C(=O)c3cc(-c4nc5cc(NC(C)=O)ccc5o4)ccn3)CC2)n1	0.4	> 100	> 250	–
CC(=O)Nc1ccc2sc(-c3ccnc(C(=O)N4CCN(C(c5ccccc5)c5nnn(C(C)C)n5)CC4)c3)nc2c1 (stereo not drawn)	1.43	> 50	–	–
CC(=O)Nc1ccc2oc(-c3ccnc(C(=O)N4CCN(C(c5ccc(F)cc5)c5nnn(C6CCOCC6)n5)CC4)c3)nc2c1 (stereo not drawn)	1.08	> 50	–	–
COCCn1nnc(C(c2ccc(F)cc2)N2CCN(C(=O)c3cc(-c4nc5cc(NC(C)=O)ccc5o4)ccn3)CC2)n1 (stereo not drawn)	2.47	> 50	–	–
CC(=O)Nc1ccc2oc(-c3ccnc(C(=O)N4CCN(C(c5ccc(F)cc5)c5nnn(CCC(C)C)n5)CC4)c3)nc2c1 (stereo not drawn)	0.35	> 50	–	–
CC(=O)Nc1ccc2oc(-c3ccnc(C(=O)N4CCN(C(c5ccc(F)cc5)c5nnn(C(C)C)n5)CC4)c3)nc2c1 (stereo not drawn)	0.22	> 50	–	–
CC(=O)Nc1ccc2oc(-c3ccnc(C(=O)N4CCN(C(c5ccc(F)cc5)c5nnn(C6CCCC6)n5)CC4)c3)nc2c1 (stereo not drawn)	0.26	> 50	–	–
CCCn1nnc(C(c2ccc(F)cc2)N2CCN(C(=O)c3cc(-c4nc5cc(NC(C)=O)ccc5o4)ccn3)CC2)n1 (stereo not drawn)	0.63	> 50	–	–
C=Cn1nnc(C(c2ccc(F)cc2)N2CCN(C(=O)c3cc(-c4nc5cc(NC(C)=O)ccc5o4)ccn3)CC2)n1 (stereo not drawn)	0.27	> 50	–	–
CC(=O)Nc1ccc2oc(-c3ccnc(C(=O)N4CCN([C@H](c5ccc(F)cc5)c5nnn(C6CCCC6)n5)CC4)c3)nc2c1	0.11	87.2	792	half-life [10]: 26.5 min; Tmax [11]: 15 min; Cmax [12]: 0.992 µg/mL; AUC(0-inf) [13]: 0.692 µg·h/mL
CC(=O)Nc1ccc2oc(-c3ccnc(C(=O)N4CCN([C@@H](c5ccc(F)cc5)c5nnn(C(C)C)n5)CC4)c3)nc2c1	2.56	> 100	> 39	–
CC(=O)Nc1ccc2oc(-c3ccnc(C(=O)N4CCN([C@H](c5ccccc5)c5nnn(C)n5)CC4)c3)nc2c1	–	–	–	Survival (Influenza A virus [5]): 100%; survival at 1.67 mg/kg (Influenza A virus [6]): 80%; Activity (Influenza A virus [3]): inactive; Activity [4]: inactive; Activity [14]: Non-Toxic
CC(=O)Nc1ccc2oc(-c3ccnc(C(=O)N4CCN(C(c5ccc(F)cc5)c5nnn(CCC6CCCCC6)n5)CC4)c3)nc2c1 (stereo not drawn)	0.82	> 50	–	–
CC(=O)Nc1ccc2oc(-c3ccnc(C(=O)N4CCN(C(c5ccccc5)c5nnnn5C(C)C)CC4)c3)nc2c1 (stereo not drawn)	> 15	> 50	–	–

Compound	IC50 (Influenza A virus [1]) [µM]	CC50 [2] [µM]	selectivity ratio [9]	other results
CC(=O)Nc1ccc2oc(-c3ccnc(C(=O)N4CCN([C@@H](c5ccc(F)cc5)c5nnn(CCC(C)C)n5)CC4)c3)nc2c1	2.51	> 100	> 39	–
CC(=O)Nc1ccc2oc(-c3ccnc(C(=O)N4CCN(C(c5ccccc5)c5nnn(C(C)C)n5)CC4)c3)nc2c1 (stereo not drawn)	0.15	> 50	–	–
C=Cn1nnc([C@H](c2ccc(F)cc2)N2CCN(C(=O)c3cc(-c4nc5cc(NC(C)=O)ccc5o4)ccn3)CC2)n1	2.93	> 100	> 34	–
CCCCn1nnc([C@@H](c2ccc(F)cc2)N2CCN(C(=O)c3cc(-c4nc5cc(NC(C)=O)ccc5o4)ccn3)CC2)n1	0.14	> 100	> 714	–
CCC(CC)n1nnc([C@@H](c2ccc(F)cc2)N2CCN(C(=O)c3cc(-c4nc5cc(NC(C)=O)ccc5o4)ccn3)CC2)n1	0.09	> 100	> 1110	–
CCCCn1nnc(C(c2ccc(F)cc2)N2CCN(C(=O)c3cc(-c4nc5cc(NC(C)=O)ccc5o4)ccn3)CC2)n1 (stereo not drawn)	0.38	> 50	–	–
CCC(CC)C(=O)Nc1ccc2oc(-c3ccnc(C(=O)N4CCN(C(c5ccc(F)cc5)c5nnn(C)n5)CC4)c3)nc2c1 (stereo not drawn)	0.36	28.6	–	–
Cn1nnc(C(c2ccc(F)cc2)N2CCN(C(=O)c3cc(-c4nc5cc(NC(=O)C6CCCO6)ccc5o4)ccn3)CC2)n1 (stereo not drawn)	0.82	> 50	–	–
CC(=O)Nc1ccc2oc(-c3ccnc(C(=O)N4CCN(C(c5ccc(F)cc5)c5nnn(C6CC6)n5)CC4)c3)nc2c1 (stereo not drawn)	1.19	> 50	–	–
CCn1nnc(C(c2ccc(F)cc2)N2CCN(C(=O)c3cc(-c4nc5cc(NC(C)=O)ccc5o4)ccn3)CC2)n1 (stereo not drawn)	0.63	> 50	–	–
Cn1nnc(C(c2ccc(F)cc2)N2CCN(C(=O)c3cc(-c4nc5cc(NC(=O)c6ccco6)ccc5o4)ccn3)CC2)n1 (stereo not drawn)	0.22	12.8	–	–
CC(=O)Nc1ccc2oc(-c3ccnc(C(=O)N4CCN(C(c5ccc(F)cc5)c5nnn(C6CCCCC6)n5)CC4)c3)nc2c1 (stereo not drawn)	0.27	> 50	–	–
CC(=O)Nc1ccc2oc(-c3ccnc(C(=O)N4CCN([C@H](c5ccccc5)c5nnn(C(C)C)n5)CC4)c3)nc2c1	0.1	> 100	> 1000	–
CC(=O)Nc1ccc2oc(-c3ccnc(C(=O)N4CCN([C@@H](c5ccc(F)cc5)c5nnn(C6CCCC6)n5)CC4)c3)nc2c1	0.51	96.2	188	–
CCC(=O)Nc1ccc2oc(-c3ccnc(C(=O)N4CCN(C(c5ccc(F)cc5)c5nnn(C)n5)CC4)c3)nc2c1 (stereo not drawn)	0.45	> 50	–	–
CC(=O)Nc1ccc2sc(-c3ccnc(C(=O)N4CCN(C(c5ccccc5)c5nnnn5C(C)C)CC4)c3)nc2c1 (stereo not drawn)	> 15	38.5	–	–
CCCC(=O)Nc1ccc2oc(-c3ccnc(C(=O)N4CCN(C(c5ccc(F)cc5)c5nnn(C)n5)CC4)c3)nc2c1 (stereo not drawn)	0.63	> 50	–	–
CC(=O)Nc1ccc2oc(-c3ccnc(C(=O)N4CCN([C@@H](c5ccccc5)c5nnn(C(C)C)n5)CC4)c3)nc2c1	0.83	> 100	> 120	–
CCCCn1nnc([C@H](c2ccc(F)cc2)N2CCN(C(=O)c3cc(-c4nc5cc(NC(C)=O)ccc5o4)ccn3)CC2)n1	1.2	> 100	> 83	–
Cn1nnc(C(c2ccc(F)cc2)N2CCN(C(=O)c3cc(-c4nc5cc(NC(=O)c6ccccc6)ccc5o4)ccn3)CC2)n1 (stereo not drawn)	0.63	10.7	–	–
CC(=O)Nc1ccc2oc(-c3ccnc(C(=O)N4CCN([C@H](c5ccc(F)cc5)c5nnn(CCC(C)C)n5)CC4)c3)nc2c1	0.26	> 100	> 384	–
CC(=O)Nc1ccc2oc(-c3ccnc(C(=O)N4CCN([C@H](c5ccc(F)cc5)c5nnn(C(C)C)n5)CC4)c3)nc2c1	0.03	> 100	> 3330	half-life [10]: 75 min; Tmax [11]: 15 min; Cmax [12]: 3.77 µg/mL; AUC(0-inf) [13]: 2.98 µg·h/mL; inhibition at 10 µM (hERG (KCNH2)): 27.1%; survival at 15 mg/kg (Influenza A virus [15]): 80%
